Data published in ChEMBL document CHEMBL3627688, “Structure-based hybridization, synthesis and biological evaluation of novel tetracyclic heterocyclic azathioxanthone analogues as potential antitumor agents” (Eur J Med Chem, 2015).

Tests used:
Assay type in all cases: functional
MDA-MB-435 = assay: Growth inhibition of human MDA-MB-435 cells assessed as cell growth at 10 uM incubated for 48 hrs by sulforhodamine B assay; conditions: MDA-MB-435, 48 h, read-out: Activity
Malme-3M = assay: Growth inhibition of human MALME-3M cells assessed as cell growth at 10 uM incubated for 48 hrs by sulforhodamine B assay; conditions: read-out: Activity
NCI-H322M = assay: Growth inhibition of human NCI-H322M cells assessed as cell growth at 10 uM incubated for 48 hrs by sulforhodamine B assay; conditions: read-out: Activity
SK-MEL-28 = assay: Growth inhibition of human SK-MEL-28 cells assessed as cell growth at 10 uM incubated for 48 hrs by sulforhodamine B assay; conditions: SK-MEL-28, 48 h, read-out: Activity
UACC-62 = assay: Growth inhibition of human UACC62 cells assessed as cell growth at 10 uM incubated for 48 hrs by sulforhodamine B assay; conditions: UACC-62, 48 h, read-out: Activity
[1] = Growth inhibition of human MOLT4 cells assessed as cell growth at 10 uM incubated for 48 hrs by sulforhodamine B assay; conditions: MOLT-4, 48 h, read-out: Activity
[2] = Growth inhibition of human RPMI8226 cells assessed as cell growth at 10 uM incubated for 48 hrs by sulforhodamine B assay; conditions: RPMI-8226, 48 h, read-out: Activity
SR = assay: Growth inhibition of human SR cells assessed as cell growth at 10 uM incubated for 48 hrs by sulforhodamine B assay; conditions: read-out: Activity
[3] = Growth inhibition of human HCC2998 cells assessed as cell growth at 10 uM incubated for 48 hrs by sulforhodamine B assay; conditions: HCC 2998, 48 h, read-out: Activity
HL-60(TB) = assay: Growth inhibition of human HL-60(TB) cells assessed as cell growth at 10 uM incubated for 48 hrs by sulforhodamine B assay; conditions: HL-60, 48 h, read-out: Activity
HT-29 = assay: Growth inhibition of human HT-29 cells assessed as cell growth at 10 uM incubated for 48 hrs by sulforhodamine B assay; conditions: HT-29, 48 h, read-out: Activity
[4] = Growth inhibition of human LOXIMVI cells assessed as cell growth at 10 uM incubated for 48 hrs by sulforhodamine B assay; conditions: LOX IMVI, read-out: Activity
SK-MEL-2 = assay: Growth inhibition of human SK-MEL-2 cells assessed as cell growth at 10 uM incubated for 48 hrs by sulforhodamine B assay; conditions: SK-MEL-2, 48 h, read-out: Activity
NCI-H522 = assay: Growth inhibition of human NCI-H522 cells assessed as cell growth at 10 uM incubated for 48 hrs by sulforhodamine B assay; conditions: NCI-H522, 48 h, read-out: Activity
NCI-H23 = assay: Growth inhibition of human NCI-H23 cells assessed as cell growth at 10 uM incubated for 48 hrs by sulforhodamine B assay; conditions: NCI-H23, 48 h, read-out: Activity
SN12C = assay: Growth inhibition of human SN12C cells assessed as cell growth at 10 uM incubated for 48 hrs by sulforhodamine B assay; conditions: read-out: Activity
CAKI-1 = assay: Growth inhibition of human Caki1 cells assessed as cell growth at 10 uM incubated for 48 hrs by sulforhodamine B assay; conditions: CAKI-1, 48 h, read-out: Activity
HCT-15 = assay: Growth inhibition of human HCT15 cells assessed as cell growth at 10 uM incubated for 48 hrs by sulforhodamine B assay; conditions: HCT-15, 48 h, read-out: Activity
CCRF-CEM = assay: Growth inhibition of human CCRF-CEM cells assessed as cell growth at 10 uM incubated for 48 hrs by sulforhodamine B assay; conditions: read-out: Activity
DU-145 = assay: Growth inhibition of human DU145 cells assessed as cell growth at 10 uM incubated for 48 hrs by sulforhodamine B assay; conditions: DU-145, 48 h, read-out: Activity
MDA-MB-468 = assay: Growth inhibition of human MDA-MB-468 cells assessed as cell growth at 10 uM incubated for 48 hrs by sulforhodamine B assay; conditions: MDA-MB-468, 48 h, read-out: Activity
OVCAR-3 = assay: Growth inhibition of human OVCAR3 cells assessed as cell growth at 10 uM incubated for 48 hrs by sulforhodamine B assay; conditions: OVCAR-3, 48 h, read-out: Activity
HOP-62 = assay: Growth inhibition of human HOP62 cells assessed as cell growth at 10 uM incubated for 48 hrs by sulforhodamine B assay; conditions: HOP-62, 48 h, read-out: Activity
MCF7 = assay: Growth inhibition of human MCF7 cells assessed as cell growth at 10 uM incubated for 48 hrs by sulforhodamine B assay; conditions: MCF7, 48 h, read-out: Activity
UO-31 = assay: Growth inhibition of human UO31 cells assessed as cell growth at 10 uM incubated for 48 hrs by sulforhodamine B assay; conditions: UO-31, 48 h, read-out: Activity
[5] = Growth inhibition of human HOP92 cells assessed as cell growth at 10 uM incubated for 48 hrs by sulforhodamine B assay; conditions: HOP-92, 48 h, read-out: Activity
HCT-116 = assay: Growth inhibition of human HCT116 cells assessed as cell growth at 10 uM incubated for 48 hrs by sulforhodamine B assay; conditions: HCT-116, 48 h, read-out: Activity
SNB-75 = assay: Growth inhibition of human SNB75 cells assessed as cell growth at 10 uM incubated for 48 hrs by sulforhodamine B assay; conditions: SNB-75, 48 h, read-out: Activity
OVCAR-4 = assay: Growth inhibition of human OVCAR4 cells assessed as cell growth at 10 uM incubated for 48 hrs by sulforhodamine B assay; conditions: OVCAR-4, 48 h, read-out: Activity
A549 = assay: Growth inhibition of human A549/ATCC cells assessed as cell growth at 10 uM incubated for 48 hrs by sulforhodamine B assay; conditions: A549, 48 h, read-out: Activity
UACC-257 = assay: Growth inhibition of human UACC257 cells assessed as cell growth at 10 uM incubated for 48 hrs by sulforhodamine B assay; conditions: UACC-257, 48 h, read-out: Activity
SNB-19 = assay: Growth inhibition of human SNB19 cells assessed as cell growth at 10 uM incubated for 48 hrs by sulforhodamine B assay; conditions: SNB-19, 48 h, read-out: Activity
[6] = Growth inhibition of human COLO205 cells assessed as cell growth at 10 uM incubated for 48 hrs by sulforhodamine B assay; conditions: COLO 205, 48 h, read-out: Activity
TK-10 = assay: Growth inhibition of human TK10 cells assessed as cell growth at 10 uM incubated for 48 hrs by sulforhodamine B assay; conditions: TK-10, 48 h, read-out: Activity
NCI-H460 = assay: Growth inhibition of human NCI-H460 cells assessed as cell growth at 10 uM incubated for 48 hrs by sulforhodamine B assay; conditions: NCI-H460, 48 h, read-out: Activity
[7] = Growth inhibition of human Hs 578T cells assessed as cell growth at 10 uM incubated for 48 hrs by sulforhodamine B assay; conditions: read-out: Activity

O=C(O)c1c(Sc2ccc(Cl)cc2)c(O)nc2ccccc12
growth at 10 µM (MDA-MB-435): 102%
growth at 10 µM (Malme-3M): 107%
growth at 10 µM (NCI-H322M): 101%
growth at 10 µM (SK-MEL-28): 99%
growth at 10 µM (UACC-62): 102%
growth at 10 µM [1]: 97.2%
growth at 10 µM [2]: 98.1%
growth at 10 µM (SR): 106%
growth at 10 µM [3]: 101%
growth at 10 µM (HL-60(TB)): 106%
growth at 10 µM (HT-29): 101%
growth at 10 µM [4]: 90.5%
growth at 10 µM (SK-MEL-2): 120%
growth at 10 µM (NCI-H522): 81.6%
growth at 10 µM (NCI-H23): 92.6%
growth at 10 µM (SN12C): 95.8%
growth at 10 µM (CAKI-1): 76.3%
growth at 10 µM (HCT-15): 108%
growth at 10 µM (CCRF-CEM): 98.3%
growth at 10 µM (DU-145): 115%
growth at 10 µM (MDA-MB-468): 105%
growth at 10 µM (OVCAR-3): 121%
growth at 10 µM (HOP-62): 116%
growth at 10 µM (MCF7): 92%
growth at 10 µM (UO-31): 68.9%
growth at 10 µM [5]: 73%
growth at 10 µM (HCT-116): 104%
growth at 10 µM (SNB-75): 82.2%
growth at 10 µM (OVCAR-4): 98.4%
growth at 10 µM (A549): 107%
growth at 10 µM (UACC-257): 122%
growth at 10 µM (SNB-19): 97.2%
growth at 10 µM [6]: 109%
growth at 10 µM (TK-10): 118%
growth at 10 µM (NCI-H460): 104%
growth at 10 µM [7]: 88.3%

O=c1c2ccc(Cl)cc2sc2c(Cl)nc3ccccc3c12
growth at 10 µM (MDA-MB-435): 101%
growth at 10 µM (Malme-3M): 95.9%
growth at 10 µM (NCI-H322M): 100%
growth at 10 µM (SK-MEL-28): 102%
growth at 10 µM (UACC-62): 89.7%
growth at 10 µM [1]: 98%
growth at 10 µM [2]: 100%
growth at 10 µM (SR): 89%
growth at 10 µM [3]: 123%
growth at 10 µM (HL-60(TB)): 99.3%
growth at 10 µM (HT-29): 99.7%
growth at 10 µM [4]: 90.5%
growth at 10 µM (SK-MEL-2): 95.5%
growth at 10 µM (NCI-H522): 96.8%
growth at 10 µM (NCI-H23): 85.1%
growth at 10 µM (SN12C): 95.9%
growth at 10 µM (CAKI-1): 94.3%
growth at 10 µM (HCT-15): 102%
growth at 10 µM (CCRF-CEM): 93.1%
growth at 10 µM (DU-145): 114%
growth at 10 µM (MDA-MB-468): 98.6%
growth at 10 µM (OVCAR-3): 111%
growth at 10 µM (HOP-62): 82%
growth at 10 µM (MCF7): 82.6%
growth at 10 µM (UO-31): 66.1%
growth at 10 µM [5]: 90.8%
growth at 10 µM (HCT-116): 102%
growth at 10 µM (SNB-75): 77.9%
growth at 10 µM (OVCAR-4): 87.9%
growth at 10 µM (A549): 105%
growth at 10 µM (UACC-257): 104%
growth at 10 µM (SNB-19): 108%
growth at 10 µM [6]: 112%
growth at 10 µM (TK-10): 109%
growth at 10 µM (NCI-H460): 103%
growth at 10 µM [7]: 95.1%
